In brackets after ≈: the same amount, converted by molar mass. Several values for one entry are separate records, joined by “and”; a condition that tells them apart may be missing. Equal values may be shown once. Read-outs that look alike come from different tables or passages of the source.
How the values were obtained:
[1] = tested on: M. avium clinical isolate Cl-A-2 (GyrA Asp95Tyr); assay type: cell-based, M. avium subsp. hominissuis
[2] = tested on: M. avium clinical isolate Koav 15 (WT); test: microbe, parasite or virus in culture; assay type: cell-based; details: Mycobacterium avium, drug alone, day 14, read-out: MIC
[3] = tested on: M. avium clinical isolate Koav 15 (WT); test: microbe, parasite or virus in culture; assay type: cell-based; details: checkerboard; for MIC: Mycobacterium avium
[4] = tested on: M. avium clinical isolate Cl-A-2 (GyrA Asp95Tyr); assay type: cell-based, M. avium subsp. hominissuis; remark: listed apart in the source
[5] = tested on: M. avium clinical isolate Koav 19 (WT); test: microbe, parasite or virus in culture; assay type: cell-based; details: Mycobacterium avium, drug alone, day 14, read-out: MIC
[6] = tested on: M. avium clinical isolate Koav 1 (WT); test: microbe, parasite or virus in culture; assay type: cell-based; details: checkerboard; for MIC of drug alone: single replicates; for MIC: Mycobacterium avium
[7] = tested on: M. avium clinical isolate Koav 13 (GyrA Asp95Gly); assay type: cell-based, M. avium subsp. hominissuis
[8] = tested on: M. avium clinical isolate Koav 21 (WT); test: microbe, parasite or virus in culture; assay type: cell-based; details: checkerboard; for MIC: Mycobacterium avium
[9] = tested on: M. avium clinical isolate Koav 2 (WT); test: microbe, parasite or virus in culture; assay type: cell-based; details: Mycobacterium avium, drug alone, day 14
[10] = tested on: M. avium clinical isolate Koav 13 (GyrA Asp95Gly); assay type: cell-based, M. avium subsp. hominissuis; remark: listed apart in the source
[11] = tested on: M. avium clinical isolate Koav 2 (WT); test: microbe, parasite or virus in culture; assay type: cell-based; details: checkerboard; for MIC: Mycobacterium avium
[12] = tested on: M. avium clinical isolate Koav 11 (GyrA Asp95Tyr); assay type: cell-based, M. avium subsp. hominissuis
[13] = tested on: M. avium clinical isolate Koav 20 (WT); test: microbe, parasite or virus in culture; assay type: cell-based; details: checkerboard; for MIC: Mycobacterium avium
[14] = tested on: M. avium clinical isolate Koav 25 (WT); test: microbe, parasite or virus in culture; assay type: cell-based; details: for FIC of INH or EMB: pair with WQ-3810; for MIC: Mycobacterium avium
[15] = tested on: M. avium clinical isolate Koav 19 (WT); test: microbe, parasite or virus in culture; assay type: cell-based; details: for MIC: Mycobacterium avium
[16] = tested on: M. avium clinical isolate Koav 21 (WT); test: microbe, parasite or virus in culture; assay type: cell-based; details: Mycobacterium avium, drug alone, day 14, read-out: MIC
[17] = tested on: M. avium clinical isolate Koav 25 (WT); test: microbe, parasite or virus in culture; assay type: cell-based; details: Mycobacterium avium, drug alone, day 14, read-out: MIC
[18] = tested on: M. avium clinical isolate Koav 1 (WT); test: microbe, parasite or virus in culture; assay type: cell-based; details: Mycobacterium avium, drug alone, day 14, read-out: MIC
[19] = tested on: M. avium clinical isolate Koav 3 (GyrA Asp95Gly); assay type: cell-based, M. avium subsp. hominissuis
[20] = tested on: M. avium clinical isolate Koav 3 (GyrA Asp95Gly); assay type: cell-based, M. avium subsp. hominissuis; remark: listed apart in the source
[21] = tested on: M. avium clinical isolate Koav 20 (WT); test: microbe, parasite or virus in culture; assay type: cell-based; details: Mycobacterium avium, drug alone, day 14, read-out: MIC
[22] = tested on: M. avium clinical isolate Koav 11 (GyrA Asp95Tyr); assay type: cell-based, M. avium subsp. hominissuis; remark: listed apart in the source
[23] = Koav 15 (K 15), WT, single replicates, read-out: MIC of drug alone
[24] = read-out: MIC of INH or EMB with 1 µg/ml MXF, Koav 15 (K 15), WT
[25] = read-out: MIC of INH or EMB with WQ-3810, Koav 15 (K 15), WT
[26] = read-out: MIC of INH or EMB with WQ-3810, Koav 1 (K 1), WT
[27] = Koav 21 (K 21), WT, single replicates, read-out: MIC of drug alone
[28] = read-out: MIC of INH or EMB with 1 µg/ml MXF, Koav 21 (K 21), WT
[29] = Koav 2 (K 2), WT, single replicates, read-out: MIC of drug alone
[30] = read-out: MIC of INH or EMB with WQ-3810, Koav 2 (K 2), WT
[31] = Koav 25 (K 25), WT, checkerboard
[32] = Koav 25 (K 25), WT, checkerboard, single replicates, read-out: MIC of drug alone
[33] = read-out: MIC of INH or EMB with 1 µg/ml MXF, Koav 25 (K 25), WT, checkerboard
[34] = read-out: MIC of INH or EMB with WQ-3810, Koav 25 (K 25), WT, checkerboard
[35] = Koav 19 (K 19), WT, checkerboard, single replicates
[36] = Koav 19 (K 19), WT, pair with MXF
[37] = Koav 19 (K 19), WT, checkerboard, single replicates, read-out: MIC of drug alone
[38] = read-out: MIC of INH or EMB with 1 µg/ml MXF, Koav 19 (K 19), WT, checkerboard

`CC[C@@H](CO)NCCN[C@@H](CC)CO` [EMB, ethambutol] was tested, and the “MIC of INH or EMB with 1 µg/ml MXF” value [1] was 2 µg/mL and 4 µg/mL, the “MIC of drug alone” value [1] was 16 µg/mL and the MIC [2] was 16 µg/mL (≈ 78.3 µM). For the same molecule, the “MIC of INH or EMB with 1 µg/ml MXF” value ([3]; Koav 15 (K 15), WT) was 4 µg/mL, the “MIC of INH or EMB with WQ-3810” value ([3]; Koav 15 (K 15), WT) was 8 µg/mL and the MIC [3, 23] was 16 µg/mL. The MIC [3, 24] was 8 µg/mL, the MIC [3, 25] was 4 µg/mL and the MIC [4] was 16 µg/mL (≈ 78.3 µM). For the same molecule, the MIC [5] was 16 µg/mL (≈ 78.3 µM), the “MIC of INH or EMB with WQ-3810” value ([6]; Koav 1 (K 1), WT) was 2 µg/mL and the “MIC of drug alone” value ([6]; Koav 1 (K 1), WT) was 8 µg/mL and 4 µg/mL and 2 µg/mL. For the same molecule, the MIC [6, 26] was 4 µg/mL, the “MIC of INH or EMB with 1 µg/ml MXF” value [7] was 16 µg/mL and the “MIC of INH or EMB with WQ-3810” value [7] was 8 µg/mL and 16 µg/mL. The “MIC of drug alone” value [7] was 32 µg/mL, the “MIC of INH or EMB with 1 µg/ml MXF” value ([8]; Koav 21 (K 21), WT) was 1 µg/mL and the MIC [8, 27] was 32 µg/mL. The MIC [8, 28] was 2 µg/mL, the MIC ([8]; read-out: MIC of INH or EMB with WQ-3810, Koav 21 (K 21), WT) was 16 µg/mL and the MIC [9] was 16 µg/mL (≈ 78.3 µM). The MIC [10] was 32 µg/mL (≈ 157 µM), the “MIC of drug alone” value ([11]; Koav 2 (K 2), WT, single replicates) was 32 µg/mL and the MIC [11, 29] was 16 µg/mL. It also gave an MIC [11, 30] of 8 µg/mL, an MIC [12] of 16 µg/mL (≈ 78.3 µM) and an MIC ([13]; Koav 20 (K 20), WT, single replicates, read-out: MIC of drug alone) of 2 µg/mL. The “MIC of INH or EMB with 1 µg/ml MXF” value [14, 31] was 8 µg/mL, the “FIC of INH or EMB” value ([14]; Koav 25 (K 25), WT) was 0.5 µg/mL and the MIC [14, 32] was 32 µg/mL. For the same molecule, the MIC [14, 33] was 16 µg/mL, the MIC [14, 34] was 16 µg/mL and the “MIC of INH or EMB with WQ-3810” value ([15]; Koav 19 (K 19), WT, checkerboard) was 8 µg/mL. For the same molecule, the “MIC of drug alone” value [15, 35] was 16 µg/mL, the “FIC of INH or EMB” value [15, 36] was 0.5 µg/mL and the “FIC of INH or EMB” value ([15]; Koav 19 (K 19), WT, pair with WQ-3810) was 0.5 µg/mL. For the same molecule, the MIC [15, 37] was 8 µg/mL, the MIC [15, 38] was 8 µg/mL and the MIC ([15]; read-out: MIC of INH or EMB with WQ-3810, Koav 19 (K 19), WT, checkerboard) was 4 µg/mL. It also gave an MIC [16] of 32 µg/mL (≈ 157 µM), an MIC [17] of 32 µg/mL (≈ 157 µM) and an MIC [18] of 2 µg/mL (≈ 9.79 µM). The “MIC of INH or EMB with 1 µg/ml MXF” value [19] was 4 µg/mL and 2 µg/mL, the MIC [20] was 16 µg/mL (≈ 78.3 µM) and the MIC [21] was 2 µg/mL (≈ 9.79 µM).
With `NNC(=O)c1ccncc1` [INH, isoniazid] the “FIC of INH or EMB” value [1] was 0.5 µg/mL and 0.25 µg/mL, the “MIC of INH or EMB with 1 µg/ml MXF” value [1] was 2 µg/mL and the “MIC of INH or EMB with WQ-3810” value [1] was 2 µg/mL. The “MIC of drug alone” value [1] was 4 µg/mL and 8 µg/mL, the MIC [2] was 32 µg/mL (≈ 233 µM) and the “MIC of INH or EMB with 1 µg/ml MXF” value ([3]; Koav 15 (K 15), WT) was 4 µg/mL. The “MIC of INH or EMB with WQ-3810” value ([3]; Koav 15 (K 15), WT) was 8 µg/mL, the “MIC of drug alone” value ([3]; Koav 15 (K 15), WT, single replicates) was 16 µg/mL and the MIC [3, 23] was 32 µg/mL. It also gave an MIC [3, 24] of 8 µg/mL, an MIC [3, 25] of 4 µg/mL and an MIC [4] of 4 to 8 µg/mL. For the same molecule, the MIC [5] was 8 to 16 µg/mL (≈ 58.3 to 117 µM), the “MIC of INH or EMB with 1 µg/ml MXF” value ([6]; Koav 1 (K 1), WT) was 2 µg/mL and the “MIC of INH or EMB with WQ-3810” value ([6]; Koav 1 (K 1), WT) was 8 µg/mL. For the same molecule, the “MIC of drug alone” value ([6]; Koav 1 (K 1), WT) was 16 µg/mL and 32 µg/mL and 8 µg/mL, the MIC ([6]; read-out: MIC of INH or EMB with 1 µg/ml MXF, Koav 1 (K 1), WT) was 1 µg/mL and the MIC [6, 26] was 4 µg/mL. For the same molecule, the “MIC of INH or EMB with 1 µg/ml MXF” value [7] was 8 µg/mL and 4 µg/mL, the “MIC of INH or EMB with WQ-3810” value [7] was 8 µg/mL and 4 µg/mL and the “MIC of drug alone” value [7] was 32 µg/mL. For the same molecule, the MIC [8, 27] was 16 µg/mL, the MIC [8, 28] was 1 µg/mL and the MIC [9] was 128 µg/mL (≈ 933 µM). For the same molecule, the “MIC of INH or EMB with 1 µg/ml MXF” value [22] was 2 µg/mL, the “MIC of INH or EMB with WQ-3810” value [22] was 2 µg/mL and the “MIC of drug alone” value [22] was 8 µg/mL and 16 µg/mL. It also gave an MIC [10] of 32 µg/mL (≈ 233 µM), an MIC [11, 29] of 128 µg/mL and an MIC ([11]; read-out: MIC of INH or EMB with 1 µg/ml MXF, Koav 2 (K 2), WT) of 8 µg/mL. For the same molecule, the MIC [11, 30] was 16 µg/mL, the MIC [12] was 8 µg/mL (≈ 58.3 µM) and the “MIC of INH or EMB with 1 µg/ml MXF” value ([13]; Koav 20 (K 20), WT) was 4 µg/mL. The “MIC of drug alone” value ([13]; Koav 20 (K 20), WT, single replicates) was 32 µg/mL and 16 µg/mL and 64 µg/mL, the MIC ([13]; read-out: MIC of INH or EMB with 1 µg/ml MXF, Koav 20 (K 20), WT) was 2 µg/mL and the “MIC of INH or EMB with 1 µg/ml MXF” value [14, 31] was 1 µg/mL. The “MIC of INH or EMB with WQ-3810” value [14, 31] was 4 µg/mL, the “MIC of drug alone” value ([14]; Koav 25 (K 25), WT, checkerboard, single replicates) was 16 µg/mL and the “FIC of INH or EMB” value ([14]; Koav 25 (K 25), WT) was 0.25 µg/mL. It also gave an MIC [14, 32] of 8 µg/mL, an MIC [14, 33] of 2 µg/mL and an MIC [14, 34] of 2 µg/mL. For the same molecule, the “MIC of drug alone” value [15, 35] was 16 µg/mL, the “FIC of INH or EMB” value [15, 36] was 0.0625 µg/mL and the MIC [15, 37] was 8 µg/mL. The MIC [15, 38] was 1 µg/mL, the MIC [16] was 16 µg/mL (≈ 117 µM) and the MIC [17] was 8 µg/mL (≈ 58.3 µM). The MIC [18] was 8 µg/mL (≈ 58.3 µM), the “MIC of INH or EMB with 1 µg/ml MXF” value [19] was 2 µg/mL and 1 µg/mL and the “MIC of INH or EMB with WQ-3810” value [19] was 2 µg/mL and 1 µg/mL. For the same molecule, the “MIC of drug alone” value [19] was 4 µg/mL and 8 µg/mL, the MIC [20] was 4 µg/mL (≈ 29.2 µM) and the MIC [21] was 16 µg/mL (≈ 117 µM).
